According to PMC11358882, “Neuroprotective Effects of Phenolic Constituents from Drynariae Rhizoma” (Pharmaceuticals, 2024):

Experiments:
BACE1 = target: T1, BACE1 (Homo sapiens, UniProt P56817); test: BACE1 (β-secretase) FRET inhibitory assay; format: biochemical; details: isolated compounds; mean ± SD, n = 3; read-out: IC50 BACE1
T1 construct: purchased PanVera Corporation, Madison, WI, USA P2985
Protocol: The BACE1 inhibition assay was conducted using the BACE1 (β-secretase) FRET Assay Kit, Red Protocol, part number P2985 (PanVera® Corporation, Madison, WI, USA), following the manufacturer’s recommended protocol with minor modifications. The assay mixture consisted of 10 μL of BACE1 (1.0 U/mL), 10 μL of substrate (750 nM Rh-[…]-Quencher in 50 mM ammonium bicarbonate), the assay buffer (50 mM sodium acetate, pH 4.5), and 10 μL of the test samples. […] The reaction mixture was incubated for 60 min at room temperature in darkness. Before measurement, a stop solution (2.5 M sodium acetate) was added to halt the reaction. BACE1 enzyme activity was assessed by monitoring the proteolysis of two fluorophores (Rh-[…]-Quencher), forming the fluorescent donor (Rh-EVNL) with increased fluorescence wavelengths at 530–545 nm (excitation) and 570–590 nm (emission), respectively. All reactions were recorded in black 96-well microplates and performed in triplicate. The percentage of inhibition (%) was calculated using the following formula: inhibition (%)=[1−(S60−S0)/(C60−C0)]×100 , where C60 represents the fluorescence of the control after incubation, C0 represents the initial fluorescence of the control, S60 represents the fluorescence of the tested sample after incubation, and S0 represents the initial fluorescence of the tested sample. The BACE1-inhibitory activities of each sample were quantified in terms of IC50, which was determined from the log–dose inhibition curve.

MAO-B = target: T2, MAO-B (Homo sapiens, UniProt P27338); test: MAO-B inhibitor screening kit (fluorometric) assay; format: biochemical; details: isolated compounds; mean ± SD, n = 3; ND = no detection using test concentration
T2 construct: purchased Abcam plc, Cambridge, UK ab284511
T2 sequence (P27338 1-520): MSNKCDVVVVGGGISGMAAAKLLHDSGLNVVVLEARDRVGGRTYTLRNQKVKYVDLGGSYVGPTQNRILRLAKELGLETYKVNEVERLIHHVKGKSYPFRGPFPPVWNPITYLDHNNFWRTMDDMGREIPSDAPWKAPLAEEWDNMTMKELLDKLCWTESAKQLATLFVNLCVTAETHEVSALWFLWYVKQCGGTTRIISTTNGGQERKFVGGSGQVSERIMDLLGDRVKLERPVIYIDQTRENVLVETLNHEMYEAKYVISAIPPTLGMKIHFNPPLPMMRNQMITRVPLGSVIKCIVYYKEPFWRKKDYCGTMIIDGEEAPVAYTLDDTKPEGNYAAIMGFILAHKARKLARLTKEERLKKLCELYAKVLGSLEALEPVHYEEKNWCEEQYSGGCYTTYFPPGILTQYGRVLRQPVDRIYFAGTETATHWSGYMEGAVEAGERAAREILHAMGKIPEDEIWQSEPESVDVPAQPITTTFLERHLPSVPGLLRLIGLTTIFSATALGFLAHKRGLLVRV
Protocol: The MAO-B-inhibition assay was conducted using the MAO-B Inhibitor Screening Kit (Fluorometric) ab284511 (Abcam plc, Cambridge, UK), following the manufacturer’s recommended protocol with minor modifications. The enzyme solution (50 µL) and the test sample (10 µL) were adjusted as per the manual instructions. […] After mixing, samples and enzymes were incubated at 25 °C for 10 min. Subsequently, 40 μL of MAO-B substrate (comprising MAO-B assay buffer, MAO substrate, developer, and OxiRed probe) was added, followed by further incubation at 25 °C for 5 min. Fluorescence was measured using enzyme-linked immunosorbent assay within 40 min with dynamic fluorescence (Ex/Em = 535/587 nm). All reactions were recorded in black 96-well microplates and performed in triplicate. The slope for all samples, including the enzyme control (EC), was calculated by dividing the net ΔRFU (RFU2–RFU1) values by the time Δt (T2 − T1). The % relative inhibition was computed as follows: % relative inhibition=(slope of EC−slope of S)/slope of EC×100 . The MAO-B-inhibitory activities of each sample were quantified in terms of IC50, as determined from the log–dose inhibition curve.

sAPPβ = test: Western blot of sAPPβ levels in APP-CHO cells; format: cell-based, Chinese hamster; details: 1.0 μM, 24 h
Protocol: APP-CHO cells were seeded in six-well plates at a density of 6 × 10^5 cells/1000 μL of medium per well and incubated at 37 °C overnight for cell attachment. Then, the medium was replaced with FBS-free RPMI 1640 for 1 h, followed by treatment with test samples at 37 °C. After 24 h, the cells were washed with PBS and lysed in Laemmli sample buffer. The collected cell lysates were boiled at 100 °C for 10 min. For Western blot analysis, 20 μg of proteins were separated by 7.5% SDS-PAGE and transferred to a PVDF membrane using Trans-Blot® Turbo TM (Bio-Rad, Hercules, CA, USA). The membrane was blocked with 5% skim milk in PBS for 1 h and incubated with primary antibodies overnight at 4 °C. The primary antibodies used were sAPPβ antibody, BACE1 antibody, and α-tubulin antibody diluted at 1:1000, 1:1000, and 1:25,000, respectively. After washing with PBS-T (0.1% Tween 20 in PBS) three times for 10 min each, secondary antibodies, diluted to 1:2500, were incubated for 1 h. Protein detection was performed using ECL solution reagent and protein visualization (ChemiDoc^TM XRS+., Bio-Rad, Hercules, CA, USA). The signal intensity of the bands was quantified and normalized to the signal intensity of the α-tubulin band. Results were expressed as a percentage of DMSO-treated control.

T1 sequence (P56817 46-501): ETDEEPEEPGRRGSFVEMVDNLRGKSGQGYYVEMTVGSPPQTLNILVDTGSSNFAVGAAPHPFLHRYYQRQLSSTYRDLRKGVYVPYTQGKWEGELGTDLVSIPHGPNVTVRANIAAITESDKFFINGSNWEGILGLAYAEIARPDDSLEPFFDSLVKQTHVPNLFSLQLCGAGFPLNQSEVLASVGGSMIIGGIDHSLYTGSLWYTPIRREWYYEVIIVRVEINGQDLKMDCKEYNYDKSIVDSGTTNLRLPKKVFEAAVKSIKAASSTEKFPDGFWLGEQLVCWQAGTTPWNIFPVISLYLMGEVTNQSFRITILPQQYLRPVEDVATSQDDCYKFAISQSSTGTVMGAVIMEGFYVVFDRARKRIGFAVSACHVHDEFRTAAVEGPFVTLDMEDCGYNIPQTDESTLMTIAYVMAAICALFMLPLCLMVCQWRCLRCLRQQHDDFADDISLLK

| Structure (SMILES) | IC50 (BACE1) [µM] | IC50 (MAO-B) [µM] | reduction of sAPPβ levels compared to DMSO-treated controls (sAPPβ) [%] |
| --- | --- | --- | --- |
| C[C@@H]1O[C@@H](Oc2c(-c3ccc(O)cc3)oc3cc(O[C@@H]4O[C@H](CO)[C@@H](O)[C@H](O)[C@H]4O)cc(O)c3c2=O)[C@H](O)[C@H](O)[C@H]1O [Compound 6, kaempferol 3-O-rhamnoside 7-O-glucoside] | 83.27 ± 0.33 | 109.19 ± 0.08 | 30 |
| O=c1c(O[C@@H]2O[C@H](CO)[C@@H](O)[C@H](O)[C@H]2O)c(-c2ccc(O)cc2)oc2cc(O[C@@H]3O[C@@H](CO)[C@H](O)[C@H]3O)cc(O)c12 [Compound 7, kaempferol 3-o-b-d-glucopyranoside-7-o-a-L-arabinofuranoside] | 39.11 ± 0.17 | 65.8 ± 3.72 | 30 |
